# Assay: Plasma pharmacokinetics following a single intravenous and subcutaneous injection of a combination of formoterol and budesonide
# Conditions: for AUC(0-inf): AUCinf; for bioavailability: F (bioavailability); for concentration at 0.0333 hr: male 1-0771, 0.0333 hr; for concentration at 0.0833 hr: male 1-0771, 0.0833 hr; for concentration at 0.167 hr: male 1-0771, 0.167 hr; for concentration at 0.333 hr: male 1-0771, 0.333 hr; for concentration at 0.5 hr: male 1-0771, 0.500 hr; for concentration at 0.75 hr: male 1-0771, 0.750 hr; for concentration at 1 hr: male 1-0771, 1.00 hr; for concentration at 2 hr: male 1-0771, 2.00 hr; for concentration at 4 hr: male 1-0771, 4.00 hr; for concentration at 8 hr: male 1-0771, 8.00 hr; for concentration at 24 hr: male 1-0771, 24.0 hr
# Protocol: Formoterol fumarate dehydrate and budesonide were formulated in 2% PEG-400 in saline. 1 male and 1 female non-naive Gottingen minipigs (8 to 12 kg upon receipt per protocol) were utilized. The animals were housed individually.
# Each minipig received a single IV injection of the combined formoterol and budesonide formulation followed by testing of the SC doses. Each dose was separated by at least a 3-day washout period. The IV dose was administered by slow bolus (1 minute; 0.017 hr) into the marginal ear vein, whereas the first SC dose was administered as a bolus injection along the back (neck-region) where there was a longitudinal fat depot. The second SC dose was distributed in 5 separate proximal SC injections separated by approximately 2 cm. Blood samples (approximately 4 mL) were collected via the branchiocephalic plexus at pre-dose and at 2, 5, 10, 20, 30 and 45 minutes, and at 1, 2, 4, 8 and 24 hr post-dose. Blood samples were placed in tubes containing K2-EDTA as the anticoagulant. Samples were processed to plasma by centrifugation and stored frozen at approximately −70° C. (+/−15° C.) until shipment for analysis.
# Plasma samples were analyzed for formoterol and budesonide using a qualified liquid chromatography/mass spectrometry/mass mass spectrometry (LC/MS/MS) method. The lower limit of quantitation (LLOQ) was 1.00 pg/mL for formoterol and 25.0 pg/mL for budesonide.
# Non-compartmental pharmacokinetic parameters were calculated using WinNonlin 5.2 software, NCA model 202, IV infusion input for the IV data and NCA model 200, extravascular input for the SC data. Individual plasma concentrations for each animal were used in the calculation of pharmacokinetic parameters. Nominal collection times and doses were used in the calculations. The area under the plasma concentration-time curve (AUC) was calculated using linear trapezoidal approximation (linear/log interpolation). Concentration values below the assay limit of quantitation were set to zero for calculations. The maximum plasma concentration (Cmax) and the time of its occurrence (Tmax) were verified by inspection. The half-life (t1/2) values were calculated using the last 3 plasma concentrations with nonzero values, if data permitted.
# [1] = male, Gottingen, minipig, in vivo, formoterol 0.4 μg/kg SC1 single site, combination, male 1-0771
# [2] = male, Gottingen, minipig, in vivo, formoterol 0.4 μg/kg SC5 (5 sites), combination, male 1-0771
# [3] = male, Gottingen, minipig, in vivo, Plasma concentration of formoterol, SC1 0.4 μg/kg, combination
# [4] = male, Gottingen, minipig, in vivo, Plasma concentration of formoterol, SC5 0.4 μg/kg, combination
# [5] = male, Gottingen, minipig, in vivo, iv, 0.4 ug/kg
# [6] = male, Gottingen, minipig, in vivo, iv, 0.4 ug/kg, formoterol 0.4 μg/kg IV in combination with budesonide, male 1-0771
# [7] = male, Gottingen, minipig, in vivo, iv, Plasma concentration of formoterol, IV 0.4 μg/kg, combination
compound,measurement,setting,value
"COc1ccc(CC(C)NCC(O)c2ccc(O)c(NC=O)c2)cc1 (centres unmarked) [Formoterol, formoterol]",tlast,"formoterol 0.4 μg/kg IV in combination with budesonide, male 1-0771",8.00 h
same,tlast,"formoterol 0.4 μg/kg SC1 single site, combination, female 2-0623",8.00 h
same,tlast,"formoterol 0.4 μg/kg SC1 single site, combination, male 1-0771",24.0 h
same,tlast,"formoterol 0.4 μg/kg SC5 (5 sites), combination, female 2-0623",24.0 h
same,tlast,"formoterol 0.4 μg/kg SC5 (5 sites), combination, male 1-0771",24.0 h
same,partition ratio (plasma Cmax subcutaneous / intravenous),formoterol with budesonide in about 2% PEG-400 in saline,0.5
same,AUC(0-inf),[1],0.627 ng·h/mL
same,AUC(0-inf),[2],0.579 ng·h/mL
same,Cmax,[1],0.378 ng/mL
same,Cmax,[2],0.217 ng/mL
same,bioavailability,[1],238%
same,bioavailability,[2],219%
same,concentration at 0 hr,"male, Gottingen, minipig, in vivo, Plasma concentration of formoterol, SC1 0.4 μg/kg, combination, male 1-0771, 0 hr",0.00463 ng/mL
same,concentration at 0.0333 hr,[3],0.378 ng/mL
same,concentration at 0.0833 hr,[3],0.294 ng/mL
same,concentration at 0.167 hr,[3],0.147 ng/mL
same,concentration at 0.333 hr,[3],0.121 ng/mL
same,concentration at 0.5 hr,[3],0.161 ng/mL
same,concentration at 0.75 hr,[3],0.079 ng/mL
same,concentration at 1 hr,[3],0.0833 ng/mL
same,concentration at 2 hr,[3],0.0822 ng/mL
same,concentration at 4 hr,[3],0.0422 ng/mL
same,concentration at 8 hr,[3],0.0152 ng/mL
same,concentration at 24 hr,[3],0.00287 ng/mL
same,concentration at 0.0333 hr,[4],0.133 ng/mL
same,concentration at 0.0833 hr,[4],0.216 ng/mL
same,concentration at 0.167 hr,[4],0.217 ng/mL
same,concentration at 0.333 hr,[4],0.15 ng/mL
same,concentration at 0.5 hr,[4],0.0938 ng/mL
same,concentration at 0.75 hr,[4],0.0941 ng/mL
same,concentration at 1 hr,[4],0.0801 ng/mL
same,concentration at 2 hr,[4],0.0711 ng/mL
same,concentration at 4 hr,[4],0.0359 ng/mL
same,concentration at 8 hr,[4],0.0181 ng/mL
same,concentration at 24 hr,[4],0.0013 ng/mL
same,Tmax,[1],0.0333 h
same,Tmax,[2],0.167 h
same,Vd,[5],3.94 L/kg
same,clearance,[5],25.3 mL/min/kg
same,AUC(0-inf),[6],0.264 ng·h/mL
same,Cmax,[6],0.41 ng/mL
same,Tmax,[6],0.0333 h
same,half-life,"male, Gottingen, minipig, in vivo, iv, 0.4 ug/kg, t1/2, formoterol 0.4 μg/kg IV in combination with budesonide, male 1-0771",2.54 h
same,concentration at 0.0333 hr,[7],0.41 ng/mL
same,concentration at 0.0833 hr,[7],0.0996 ng/mL
same,concentration at 0.167 hr,[7],0.0902 ng/mL
same,concentration at 0.333 hr,[7],0.0689 ng/mL
same,concentration at 0.5 hr,[7],0.057 ng/mL
same,concentration at 0.75 hr,[7],0.0488 ng/mL
same,concentration at 1 hr,[7],0.0813 ng/mL
same,concentration at 2 hr,[7],0.0265 ng/mL
same,concentration at 4 hr,[7],0.0183 ng/mL
same,concentration at 8 hr,[7],0.00533 ng/mL
same,half-life,"male, Gottingen, minipig, in vivo, t1/2, formoterol 0.4 μg/kg SC1 single site, combination, male 1-0771",5.51 h
same,half-life,"male, Gottingen, minipig, in vivo, t1/2, formoterol 0.4 μg/kg SC5 (5 sites), combination, male 1-0771",4.19 h
same,absorption after SC administration,"single site and divided over 5 sites, combination",well absorbed

# From patent US9132084B2, “Methods for administration and formulations for the treatment of regional adipose tissue” (NEOTHETICS, INC., priority 2009, dated 2015)
